Where “and” joins values, the source holds several entries; their conditions need not be identical. Equal values may be shown once.

The text below walks through data of EP0369733A2, “Fluorescent indicator dyes for alkali metal cations, their preparation and use” (THE REGENTS OF THE UNIVERSITY OF CALIFORNIA, priority 1988, dated 1990).

The nature of data set [1]: Cation titration followed by absorbance or fluorescence excitation spectra: Ca²⁺ binding. The note with it: 0.1 M tetramethylammonium chloride, 1-5 mM tris(hydroxymethyl)aminomethane, high pH; read-out: Dissociation constants (Kd) in mM for Ca²⁺. On the procedure:
(§1) • Footnote a: For molecular structures, see Fig. 1. • Footnote b: Except where otherwise noted, these dissociation constants were measured with the chelator dissolved in 0.1 M tetramethylammonium chloride, at a pH held high enough with 1-5 mM tris(hydroxymethyl)aminomethane for protonation to be insignificant. The absorbance spectrum, or the fluorescence excitation spectrum for those compounds (2GG, 2NN, 2OO, 2PP, 3NN) with acronyms was measured as a function of the concentration of cation added as a solid or concentrated aqueous solution of the halide salt. No correction has been made for the changing ionic strength of the solution, which started from 0.1 M and increased, but the absorbances and fluorescence amplitudes were applied for dilution of the dye and any slight quenching due to high concentrations of Cl⁻. • Footnote c: These protonation constants were determined in 0.1 M tetramethylammonium chloride, 10 mM tris(hydroxymethyl)aminomethane, titrated with 5 M H₃PO₄ to successively lower pH values measured with a Radiometer PHM84 meter. […] The first number is the wavelength in nanometers, followed in parentheses by 10⁻³ x the corresponding extinction coefficient, M⁻¹cm⁻¹. […] Emission maxima are not corrected for the spectral sensitivity of the emission detection. Quantum efficiencies were measured (13) by comparing the integral of the corrected emission spectrum with the corresponding integral for a solution of quinine bisulfate in 1 N H₂SO₄ of matched absorbance at the excitation wavelength.
(§2) Affinities for other cations were usually measured by titrating aqueous solutions of the indicator with metal chlorides added either as solid or from concentrated stock solutions, taking care to minimize dilution and correct for it. A convenient way to mass-produce premeasured micromole to millimole aliquots of solid NaCl or KCl was to pipet saline solutions into polypropylene micro test tubes and evaporate the water in an oven. The standard ionic background was again 100 mM tetramethylammonium chloride, usually with a few mM of tris(hydroxymethyl)-aminomethane base to hold the pH high enough (pH 8-9) to insure that protonation was negligible. This convenient titration procedure had the slight disadvantage that the ionic strength was not constant, especially when large quantities of a salt had to be added due to weak affinities. […] When constant ionic strength was desired, the chelator was made up at identical concentrations in matched solutions of NaCl, KCl, or tetramethylammonium chloride, then these stocks were mixed in the desired proportions. All measurements were made at room temperature (22°, ±2° C).

A short description of data set [2]: UV absorbance spectra without and with saturating cation. Format: physicochemical. Particulars: for Absorbance maxima -Na⁺ (wavelength): 100 mM tetramethylammonium chloride plus 1-5 mM Tris; for Absorbance maxima -Na⁺ (wavelength) / Absorbance maxima -Na⁺ (extinction coefficient): no Na⁺; for Absorbance maxima +Na⁺ (wavelength): enough NaCl added (0.2-1 M) to saturate the Na⁺ binding; for Absorbance maxima -Na⁺ (extinction coefficient): lower limits for most compounds; for Absorbance maxima +Na⁺ (extinction coefficient): lower limits, saturating NaCl (0.2-1 M). The procedure:
as §1
(§3) UV absorbance spectra were recorded initially on a Cary 210 and later on a Perkin-Elmer Lambda Array 3840 spectrophotometer. Fluorescence excitation and emission spectra and quantum efficiencies were measured on a Spex Fluorolog 111 as described previously (13).

The nature of data set [3]: Cation titration followed by absorbance or fluorescence excitation spectra: Mg²⁺ binding. Particulars: read-out: Dissociation constants (Kd) in mM for Mg²⁺. On the procedure:
as §1
as §2, with “proportions.” for “proportions. All measurements were made at room temperature (22°, ±2° C).”

Data set [4] can be described thus: Cation titration followed by absorbance or fluorescence excitation spectra: Na⁺ binding. The procedure: as §1, §2
The nature of data set [5]: physchem. The note with it: 0.1 m tetramethylammonium chloride.
Experimental: (§4) • Footnote a: For molecular structures, see Fig. 1. • Footnote b: Except where otherwise noted, these dissociation constants were measured with the chelator dissolved in 0.1 M tetramethylammonium chloride, at a pH held high enough with 1-5 mM tris(hydroxymethyl)aminomethane for protonation to be insignificant. […] No correction has been made for the changing ionic strength of the solution, which started from 0.1 M and increased, but the absorbances and fluorescence amplitudes were applied for dilution of the dye and any slight quenching due to high concentrations of Cl⁻. • Footnote c: These protonation constants were determined in 0.1 M tetramethylammonium chloride, 10 mM tris(hydroxymethyl)aminomethane, titrated with 5 M H₃PO₄ to successively lower pH values measured with a Radiometer PHM84 meter.
(§5) Proton dissociation constants of the chelators were measured by spectrophotometry or spectrofluorometry of buffered solutions, containing either 100 mM tetramethylammonium chloride as inert supporting electrolyte, or 121.5 mM K⁺, 13.5 mM Na⁺, and 1 mM Mg²⁺ to simulate the cation environment of vertebrate cytoplasm (14). Traces of UV-absorbing impurities in the tetramethylammonium chloride (Alfa Inorganics) were removed by filtration through acid-­washed activated charcoal. The concentration of the tetramethylammonium chloride was then measured by chloride titration, and the absence of significant Na⁺ contamination was verified with a sodium-selective glass electrode (Microelectrodes Inc.). When the chelators contained two protonatable nitrogens, the curve of absorbance or fluorescence versus pH was analyzed by computerized least-squares fitting to the equations for two arbitrary proton equilibria (15), with the added assumption that the two protonations each caused the same change in extinction coefficient or fluorescence.
Data set [6] is described as follows: Cation titration followed by absorbance or fluorescence excitation spectra: Li⁺ binding. The note with it: for Kd: 0.1 M tetramethylammonium chloride, 1-5 mM tris(hydroxymethyl)aminomethane, high pH, read-out: Dissociation constants (Kd) in mM for Li⁺. On the procedure: as §1, §2
Data set [7] in a line: Proton dissociation constants in 0.1 M tetramethylammonium chloride. The note with it: second value (second protonation), 10 mM Tris titrated with 5 M H₃PO₄.
Experimental: as §4, §5
Data set [8] in a line: Fluorescence excitation/emission spectra and quantum efficiency. Particulars: for Emission maxima -Na⁺: 100 mM tetramethylammonium chloride; for Emission maxima -Na⁺ / Quantum efficiency -Na⁺: no Na⁺; for Emission maxima -Na⁺ / Emission maxima +Na⁺: not corrected for detector sensitivity; for Quantum efficiency -Na⁺ / Quantum efficiency +Na⁺: relative to quinine bisulfate in 1 N H₂SO₄ (0.55); for Emission maxima +Na⁺: saturating NaCl; for Quantum efficiency +Na⁺: saturating Na⁺. The format is physicochemical. The procedure: as §1, §3

Data set [9] can be described thus: physchem. Particulars: 126 mm kcl, 14 mm nacl.
Experimental: The lowest curve ([Na⁺] = 0) was obtained with 5 µM SBFI in 130 mM KCl, 10 mM MOPS, KOH to pH 7.05, approximately 135 mM total K⁺. The highest curve ([Na⁺] = 135 mM) was analogously recorded from 5 µM SBFI in 130 mM NaCl, 10 mM MOPS, NaOH to pH 7.05. The intermediate curves from 1.35 to 94.5 mM Na⁺ were obtained by successively 1/100, 1/99, 3/98, 1/19, 1/9, 1/4, and 1/2 of the K⁺-rich SBFI solution by the SBFI in Na medium. The excitation bandwidth was 1.85 nm; emission was collected at 500 nm with 9.3 nm bandwidth. […] The lowest curve was obtained in 130 mM NaCl, 10 mM MOPS, NaOH to pH 7.05. The highest curve was in 130 mM KCl, 10 mM MOPS, KOH to pH 7.05. The intermediate curves with 13.5 to 112.5 mM K⁺ were obtained by iteratively replacing 1/10, 1/9, 1/6, 1/4, 1/3, and 1/2 of the low K⁺ medium by the 135 mM KCl solution of PBFP.
Proton dissociation constants of the chelators were measured by spectrophotometry or spectrofluorometry of buffered solutions, containing either 100 mM tetramethylammonium chloride as inert supporting electrolyte, or 121.5 mM K⁺, 13.5 mM Na⁺, and 1 mM Mg²⁺ to simulate the cation environment of vertebrate cytoplasm (14). […] When the chelators contained two protonatable nitrogens, the curve of absorbance or fluorescence versus pH was analyzed by computerized least-squares fitting to the equations for two arbitrary proton equilibria (15), with the added assumption that the two protonations each caused the same change in extinction coefficient or fluorescence. This assumption was based on the presence of two identical chromophores in each chelator and produced good fits to the experimental data.
A short description of data set [10]: Cation titration followed by absorbance or fluorescence excitation spectra: K⁺ binding. Particulars: 0.1 M tetramethylammonium chloride, 1-5 mM tris(hydroxymethyl)aminomethane, high pH; read-out: Dissociation constants (Kd) in mM for K⁺. On the procedure: as §1
Affinities for other cations were usually measured by titrating aqueous solutions of the indicator with metal chlorides added either as solid or from concentrated stock solutions, taking care to minimize dilution and correct for it. […] This convenient titration procedure had the slight disadvantage that the ionic strength was not constant, especially when large quantities of a salt had to be added due to weak affinities. […]

[11] abbreviates: 0.1 M tetramethylammonium chloride, 1-5 mM tris(hydroxymethyl)aminomethane, high pH.
Where [12] appears, read: 0.1 M tetramethylammonium chloride, 1-5 mM tris(hydroxymethyl)aminomethane, pH high enough for protonation to be insignificant, 22°, read-out: Dissociation constants (Kd) in mM for Na⁺.
Where [13] appears, read: association constant, inert background cation (tetramethylammonium).
[14] abbreviates: footnote h: 3.0 M ionic strength (3.0 M NaCl mixed with 3.0 M tetramethylammonium chloride), read-out: Dissociation constants (Kd) in mM for Na⁺.
The mark [15] stands for this setting: number is 10⁻³ x the extinction coefficient.

On to `CC(=O)Nc1ccc(N2CCOCCOCCOCCOCC2)c2ncccc12` [Compound 1C, N-(5-acetamido-8-quinolinyl)-aza[15]-crown-5], for which the Kd in data set [1] came out at 10 mM; in data set [3] (setting [11]), 12 mM; in data set [4] (setting [12]), 67 mM; in data set [6] it was 63 mM. In data set [2], the “Absorbance maxima -Na⁺ (wavelength)” value is 349 nanometers and 252 nanometers. Further, the “Absorbance maxima +Na⁺ (wavelength)” value in [2] is 304 nanometers and 229 nanometers. The “Na⁺ affinity” value in [4] (setting [13]) was 15 M⁻¹. In addition, the pKa – broadly, the pH at which an ionisable group is half protonated – in the data set “physchem [5]” is less than 7.

For `CC(=O)Nc1ccc(N2CCOCCOCCN(c3ccc(NC(C)=O)c4cccnc34)CCOCC2)c2ncccc12` [Compound 2CC, N,N-bis-(5-acetamido-8-quinolinyl)-diaza[15]-crown-5], the Kd amounted to 0.075 mM in data set [1]; 0.078 mM in data set [3] (footnote i: free [Mg²⁺] controlled by Mg²⁺-nitrilotriacetate buffers at pH 8.5); 5.3 mM in data set [4] (setting [12]); 2.4 mM in data set [4] (setting [14]); 2.8 mM in data set [6]. For the same molecule, the “Absorbance maxima -Na⁺ (wavelength)” value in [2] is 346 nanometers and 250 nanometers. Besides, the “Absorbance maxima +Na⁺ (wavelength)” value in data set [2] is 304 nanometers and 230 nanometers. The “Na⁺ affinity” value in data set [4] (depending on ionic strength) lay within 190 to 415 M⁻¹. The pKa stood at 6.85 in the data set “physchem [5]” and 5.43 in [7]. Further, in data set [6] (compared with its Na⁺ affinity), the “affinity for Li⁺ (in words)” value was “comparable to that for Na⁺”.

For `O=C(O)CCC(=O)Nc1ccc(N2CCOCCOCCN(c3ccc(NC(=O)CCC(=O)O)c4cc5ccccc5nc34)CCOCC2)c2nc3ccccc3cc12` [Compound 2II, N,N-bis-(1-succinamidoacridin-4-yl)-diaza[15]-crown-5], in data set [8], the “Emission maxima -Na⁺” value amounted to 480 nanometers, the “Quantum efficiency -Na⁺” value was “<.001”, the “Emission maxima +Na⁺” value was found to be 625 nanometers and the “Quantum efficiency +Na⁺” value is listed as “<.001”. Further, the fluorescence quantum yield entry in data set [8] (±Na⁺ not specified) is recorded as “very poor”. Also, in data set [2], the “Absorbance maxima -Na⁺ (wavelength)” value is 414 nanometers and 359 nanometers and 244 nanometers; the “Absorbance maxima +Na⁺ (wavelength)” value is 360 nanometers and 251 nanometers. In data set [4] (setting [12]), the Kd amounted to 0.32 mM. Besides, in [4] (setting [13]), the “Na⁺ affinity” value turned out to be 3125 M⁻¹. Moreover, the Kd in [4] (setting [14]) is 0.4 mM. For the same molecule, in data set [4] (ratio of Na⁺ to K⁺ affinity), the “Na⁺:K⁺ selectivity” value is recorded as more than 500. The molecule further yielded a pKa in “physchem [5]” of 8.19. The pKa in [7] came out at 6.86. In [6], the Kd turned out to be 11.5 mM.

As for `COc1cc(NC(C)=O)ccc1N1CCOCCOCCN(c2ccc(NC(C)=O)cc2OC)CCOCC1` [Compound 2JJ, N,N-bis-(4-acetamido-2-methoxyphenyl)-diaza[15]-crown-5], the Kd in data set [1] was more than 100 mM; in data set [3] (setting [11]), more than 100 mM; in [4] (setting [12]), 12 mM; in data set [6] it was 72 mM. The “Absorbance maxima -Na⁺ (wavelength)” value in data set [2] was determined as 261 nanometers. Also, the “Absorbance maxima +Na⁺ (wavelength)” value in data set [2] was 280 nanometers and 249 nanometers. This molecule also showed an Absorbance maxima -Na⁺ (extinction coefficient) in data set [2] (setting [15]) of 10800 M⁻¹ cm⁻¹. Moreover, the Absorbance maxima +Na⁺ (extinction coefficient) in [2] (setting [15]) was 5400 M⁻¹ cm⁻¹ and 10700 M⁻¹ cm⁻¹. Further, the “Na⁺ affinity” value in [4] (at I = 0.15) is 83 M⁻¹. For the same molecule, the pKa in “physchem [5]” was 6.31; in data set [7] it was 5.0.

As to `COc1cc2cc(-c3ccc(C(=O)O)c(C(=O)O)c3)oc2cc1N1CCOCCOCCN(c2cc3oc(-c4ccc(C(=O)O)c(C(=O)O)c4)cc3cc2OC)CCOCC1` [Compound 2NN, N,N-bis-(2-(3,4-dicarboxyphenyl)-5-methoxybenzofuran-6-yl)-diaza[15]-crown-5], the Kd in [1] came to 40 mM. In addition, in data set [8], the “Emission maxima -Na⁺” value stood at 528 nanometers, the “Quantum efficiency -Na⁺” value is listed as “.036”, the “Emission maxima +Na⁺” value was 505 nanometers and the “Quantum efficiency +Na⁺” value is given as “.091”. Moreover, in [2], the “Absorbance maxima -Na⁺ (wavelength)” value amounted to 342 nanometers and the “Absorbance maxima +Na⁺ (wavelength)” value is 334 nanometers. Also, in data set [2] (setting [15]), the Absorbance maxima -Na⁺ (extinction coefficient) came out at 45500 M⁻¹ cm⁻¹ and the Absorbance maxima +Na⁺ (extinction coefficient) worked out at 51600 M⁻¹ cm⁻¹. The Kd in data set [3] (setting [11]) was 18 mM. Besides, the Kd in data set [4] (setting [12]) worked out at 8.5 mM. Moreover, the Kd in data set [4] (summary statement, conditions not specified, read-out: dissociation constant (Na⁺), range achieved) fell in the range of 5 to 20 mM. The pKa in “physchem [5]” was 6.3. The molecule further displayed a pKa in “physchem [9]” of 6.4. In data set [7], this molecule came in with a pKa of 5.5.

As for `COc1cc2cc(-c3ncc(C(=O)O)o3)oc2cc1N1CCOCCOCCN(c2cc3oc(-c4ncc(C(=O)O)o4)cc3cc2OC)CCOCC1` [Compound 2OO, N,N-bis-(2-(5-carboxyoxazol-2-yl)-5-methoxybenzofuran-6-yl)-diaza[15]-crown-5], the “Emission maxima -Na⁺” value in data set [8] turned out to be 515 nanometers. The “Quantum efficiency -Na⁺” value is recorded as “.14” in [8] (listed as 2OO (SBFO)) and 0.14 in [8] (listed as SBFO). The “Emission maxima +Na⁺” value in [8] is 500 nanometers. Further, the “Quantum efficiency +Na⁺” value is recorded as “.44” in data set [8] (listed as 2OO (SBFO)) and 0.44 in [8] (listed as SBFO). Also, the “Absorbance maxima -Na⁺ (wavelength)” value in data set [2] stood at 355 nanometers. Also, in data set [2], the “Absorbance maxima +Na⁺ (wavelength)” value is 343 nanometers. This molecule also showed an Absorbance maxima -Na⁺ (extinction coefficient) in [2] (setting [15]) of 25000 M⁻¹ cm⁻¹. Also, the Absorbance maxima +Na⁺ (extinction coefficient) in data set [2] (setting [15]) was found to be 27000 M⁻¹ cm⁻¹. The Kd in [3] (setting [11]) came to 63 mM; in data set [4] (setting [12]) it was 50 mM; in data set [4] (setting [14]), 22 mM. In addition, the “Na⁺ affinity” value in data set [4] (setting [13]) worked out at 20 M⁻¹. Further, the values for the pKa (in the data set “physchem [5]”; in “physchem [9]”; in data set [7]) were 5.34, 4.82 and 4.15, respectively.

Regarding `COc1cc2cc(-c3ccc(C(=O)O)c(C(=O)O)c3)oc2cc1N1CCOCCOCCN(c2cc3oc(-c4ccc(C(=O)O)c(C(=O)O)c4)cc3cc2OC)CCOCCOCC1` [Compound 3NN, N,N-bis(2-(3,4-dicarboxyphenyl)-5-methoxybenzofuran-6-yl)-diaza[18]-crown-5], in data set [8], the “Emission maxima -Na⁺” value was 518 nanometers and the “Quantum efficiency -Na⁺” value is listed as “.0075”. Besides, in data set [8] (saturating K⁺ rather than Na⁺), the “Emission maxima +Na⁺, footnote l” value is 494^l nanometers and the “Quantum efficiency +Na⁺, footnote l” value is recorded as “.12^l”. For the same molecule, the “Absorbance maxima -Na⁺ (wavelength)” value in data set [2] amounted to 344 nanometers. The same molecule returned an Absorbance maxima -Na⁺ (extinction coefficient) in data set [2] (setting [15]) of 23000 M⁻¹ cm⁻¹. Moreover, the Absorbance maxima +Na⁺, footnote l (extinction coefficient) in data set [2] (number is 10⁻³ x the extinction coefficient, saturating K⁺ rather than Na⁺) is 25000 M⁻¹ cm⁻¹. In addition, in data set [2] (saturating K⁺ rather than Na⁺), the “Absorbance maxima +Na⁺, footnote l (wavelength)” value was 337 nanometers. Besides, the Kd in [10] was found to be 83 mM. In “physchem [9]”, this molecule had a pKa of 6.68.
